# Experimental data from patent publication EP0236477B1 (priority 1985, dated 1987).
# Key:
# [1] = cited from earlier work; for potency relative to naloxone: in vivo
# [2] = plasma of a patient; cited from earlier work
# [3] = Duration of opioid antagonistic activity (general statements); assay type: in vivo; conditions: intravenously injectable
structure (smiles),measurement,setting,value
C=C1CC[C@@]2(O)[C@H]3Cc4ccc(O)c5c4[C@@]2(CCN3CC2CC2)[C@H]1O5 [6-methylene-6-desoxy-N-cyclopropylmethyl-14-hydroxydihydronormorphine],potency relative to naloxone,[1],significantly more potent
same,potency as an antagonist relative to naltrexon,[1]; intravenous route,about four times more potent
same,time a pharmacologically active concentration can remain in the plasma,[2],three days
same,duration of antagonistic activity,[3],at least 6 hours
"O=C1CC[C@@]2(O)[C@H]3Cc4ccc(O)c5c4[C@@]2(CCN3CC2CC2)[C@H]1O5 [naltrexon, reference compound]",potency relative to naloxone,[1],significantly more potent
